The values below come from patent US20160333043A1, “E-Selectin Antagonists Modified By Macrocycle Formation to the Galactose” (GLYCOMIMETICS, INC., priority 2014, published 2016).

Molecules are shown by their SMILES. Like-named read-outs stand apart in the source and are kept apart here.

For data set [1] the following is noted: rcm bond, Grubbs 2nd generation catalyst, 25.0 °C.
For data set [2], the target named is T1, E-selectin (Homo sapiens, UniProt P16581).
T1 construct: fused on or other part: Immunoglobulin (Ig) part fused on as a handle for immobilising and dimerising
T1 sequence (P16581 22-175 limits assumed): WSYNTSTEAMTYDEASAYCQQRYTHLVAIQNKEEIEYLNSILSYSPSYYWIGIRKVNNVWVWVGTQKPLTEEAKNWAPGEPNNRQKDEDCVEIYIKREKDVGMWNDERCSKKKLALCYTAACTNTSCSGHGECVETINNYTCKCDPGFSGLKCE
The data set is described as follows: E-selectin activity competitive binding assay (sLe^a polyacrylamide / streptavidin-HRP conjugate). The following applies: immobilized E-selectin/Ig chimera; concentration required to inhibit sLe^a binding by 50%; absorbance 450 nm. From the text:
An inhibition assay may be used to screen for antagonists of E-selectin. For example, an assay may be performed to characterize the capability of a compound described herein to inhibit (i.e., reduce, block, decrease, or prevent in a statistically or biologically significant manner) interaction of E-selectin with sLe^a or sLe^x. The inhibition assay may be a competitive binding assay, which allows the determination of IC50 values. By way of example, E-selectin/Ig chimera may be immobilized onto a matrix (e.g., a multi-well plate, which may be made from a polymer, such as polystyrene; a test tube, and the like); a composition may be added to reduce nonspecific binding (e.g., a composition comprising non-fat dried milk or bovine serum albumin or other blocking buffer routinely used by a person skilled in the art); the immobilized E-selectin may be contacted with the candidate compound in the presence of sLe^a comprising a reporter group under conditions and for a time sufficient to permit sLe^a to bind to the immobilized E-selectin; the immobilized E-selectin may be washed; and the amount of sLe^a bound to immobilized E-selectin may be detected. Variations of such steps can be readily and routinely accomplished by a person of ordinary skill in the art.
The inhibition assay to screen and characterize glycomimetic antagonists of E-selectin is a competitive binding assay, from which IC50 values may be determined. E-selectin/Ig chimera was immobilized in 96 well microtiter plates by incubation at 37° C. for 2 hours. To reduce nonspecific binding, bovine serum albumin was added to each well and incubated at room temperature for 2 hours. The plate was washed and serial dilutions of the test compounds were added to the wells in the presence of conjugates of biotinylated, sLe^a polyacrylamide with streptavidin/horseradish peroxidase and incubated for 2 hours at room temperature.
To determine the amount of sLe^a bound to immobilized E-selectin after washing, the peroxidase substrate, 3,3′,5,5′ tetramethylbenzidine (TMB) was added. After 3 minutes, the enzyme reaction was stopped by the addition of H3PO4, and the absorbance of light at a wavelength of 450 nm was determined.

Consider `COC(=O)C1CC=CCO[C@H]2[C@H](O[C@@H]3CCC[C@H](C)[C@H]3O[C@@H]3O[C@@H](C)[C@@H](OCc4ccccc4)[C@@H](OCc4ccccc4)[C@@H]3OCc3ccccc3)O[C@H](COCc3ccccc3)[C@H](O)[C@@H]2O1` (stereo partly shown), for which the ring closure, yield of all isomers in data set [1] (from C=CCO[C@H]1[C@H](O[C@@H]2CCC[C@H](C)[C@H]2O[C@@H]2O[C@@H](C)[C@@H](OCc3ccccc3)[C@@H](OCc3ccccc3)[C@@H]2OCc2ccccc2)O[C@H](COCc2ccccc2)[C@H](O)[C@@H]1OC(CC=C)C(=O)OC, DCM, 5.25 mM, 2.0 h) is 86%.
`CC[C@@H]1CCC[C@@H](O[C@@H]2OC(CO)[C@H](O)C3O[C@@H](C(=O)O)CCCOC32)C1O[C@@H]1OC(C)[C@@H](O)C(O)[C@@H]1O` (stereo partly shown) [Compound 47]: the half-inhibitory concentration (IC50) in data set [2] is 3.8 µM.
The same measure, in the same setting: the same measure for `CC[C@@H]1CCC[C@@H](O[C@@H]2OC(CO)[C@H](O)C3O[C@@H](C(=O)O)CCCCOC32)C1O[C@@H]1OC(C)[C@@H](O)C(O)[C@@H]1O` (stereo partly shown) [Compound 39]: 7.3 µM.
`COC(=O)C1CC=CCCO[C@H]2[C@H](O[C@@H]3CCC[C@H](C)[C@H]3O[C@@H]3O[C@@H](C)[C@@H](OCc4ccccc4)[C@@H](OCc4ccccc4)[C@@H]3OCc3ccccc3)O[C@H](COCc3ccccc3)[C@H](O)[C@@H]2O1` (stereo partly shown) yielded a ring closure, yield of all isomers in data set [1] (from C=CCCO[C@H]1[C@H](O[C@@H]2CCC[C@H](C)[C@H]2O[C@@H]2O[C@@H](C)[C@@H](OCc3ccccc3)[C@@H](OCc3ccccc3)[C@@H]2OCc2ccccc2)O[C@H](COCc2ccccc2)[C@H](O)[C@@H]1OC(CC=C)C(=O)OC, DCM, 2.0 h) of 82.5%.
Compound `CC1O[C@@H](OC2[C@H](C)CCC[C@H]2O[C@@H]2OC(CO)[C@H](O)C3O[C@@H](C(=O)O)CCCCOC32)[C@@H](O)C(O)[C@@H]1O` (stereo partly shown) [Compound 18a] returned a half-maximal inhibitory concentration (IC50) in data set [2] of 15.2 µM.
The compound `CC[C@H]1CCC[C@@H](O[C@@H]2O[C@@H]3COC(c4ccccc4)O[C@@H]3[C@@H]3O[C@@H](C(=O)OCc4ccccc4)CC=CCO[C@@H]23)[C@@H]1O[C@@H]1O[C@@H](C)[C@@H](OCc2ccccc2)[C@@H](OCc2ccccc2)[C@@H]1OCc1ccccc1` (stereo partly shown) displayed a ring closure, yield of all isomers in data set [1] (from C=CCO[C@H]1[C@H](O[C@@H]2CCC[C@H](CC)[C@H]2O[C@@H]2O[C@@H](C)[C@@H](OCc3ccccc3)[C@@H](OCc3ccccc3)[C@@H]2OCc2ccccc2)O[C@@H]2COC(c3ccccc3)O[C@@H]2[C@@H]1O[C@H](CC=C)C(=O)OCc1ccccc1, 16.0 h) of 66%.
In data set [2], `CC1O[C@@H](OC2[C@H](C)CCC[C@H]2O[C@@H]2OC(CO)[C@H](O)C3O[C@@H](C(=O)O)CCCOC32)[C@@H](O)C(O)[C@@H]1O` (stereo partly shown) [Compound 25] returned a 50% inhibitory concentration (IC50) of 15.8 µM.

The term IC50 denotes the midpoint of a concentration-inhibition curve. Higher therefore signals a need for much substance.
